Results taken from EP4620959A1, “CYCLIC COMPOUNDS USED AS MULTI-TARGET KINASE INHIBITORS AND PREPARATION METHOD THEREFOR” (Shanghai Institute of Organic Chemistry, Chinese Academy of …, priority 2022, dated 2024).
Read-outs that look alike come from different tables or passages of the source.

Columns and labels:
FGFR4 N535K = FGFR4 N535K (Homo sapiens, UniProt P22455, N535K); assay: Kinase activity inhibition assay (HTRF), FGFR4 N535K; type: biochemical; conditions: ATP 100 µM
Protocol: (§1) The kinase activity inhibition assay was performed by ICE Bioscience (Beijing) using ADP-Glo and HTRF methods.
(§2) Table 1.2-2 HTRF Kinase and Substrate Formulation
(§3) • 1) 2×ATP/substrate solution and 2×kinase/metal ion solution were prepared using kinase reaction buffer; • 2) 20 nL (ADP-GLo) or 40 nL (HTRF) of compound dilution was transferred using Echo 655 onto a 384-well assay plate; after centrifugation, 2 µL of 2×kinase and metal ion solution were added to the 384-well assay plate, centrifuged at 1000 rpm for 1 min, and incubated at 25°C for 10 min; • 3) 2 µL of 2×substrate and ATP solution were added to the 384-well assay plate, centrifuged at 1000 rpm for 1 min, and incubated at 25°C for 60 min. • 4) 4 µL of ADP-Glo was transferred to the 384-well assay plate, entrifuged at 1000 rpm for 1 min, and incubated at 25°C for 40 min. • 5) 8 µL of detection solution was transferred to the 384-well assay plate, centrifuged at 1000 rpm for 1 min, and incubated at 25°C for 40 min. • 6) Luminescence signals was read using a multifunctional microplate reader.
(§4) SD is the standard error, and AVE is the average value. Table 2-1 LRRK2 Activity Inhibition Test Results

FGFR4 = FGFR4 (Homo sapiens, UniProt P22455); assay: Kinase activity inhibition assay (HTRF), FGFR4; type: biochemical; conditions: ATP 50 µM
Sequence of FGFR4 (P22455 22-802): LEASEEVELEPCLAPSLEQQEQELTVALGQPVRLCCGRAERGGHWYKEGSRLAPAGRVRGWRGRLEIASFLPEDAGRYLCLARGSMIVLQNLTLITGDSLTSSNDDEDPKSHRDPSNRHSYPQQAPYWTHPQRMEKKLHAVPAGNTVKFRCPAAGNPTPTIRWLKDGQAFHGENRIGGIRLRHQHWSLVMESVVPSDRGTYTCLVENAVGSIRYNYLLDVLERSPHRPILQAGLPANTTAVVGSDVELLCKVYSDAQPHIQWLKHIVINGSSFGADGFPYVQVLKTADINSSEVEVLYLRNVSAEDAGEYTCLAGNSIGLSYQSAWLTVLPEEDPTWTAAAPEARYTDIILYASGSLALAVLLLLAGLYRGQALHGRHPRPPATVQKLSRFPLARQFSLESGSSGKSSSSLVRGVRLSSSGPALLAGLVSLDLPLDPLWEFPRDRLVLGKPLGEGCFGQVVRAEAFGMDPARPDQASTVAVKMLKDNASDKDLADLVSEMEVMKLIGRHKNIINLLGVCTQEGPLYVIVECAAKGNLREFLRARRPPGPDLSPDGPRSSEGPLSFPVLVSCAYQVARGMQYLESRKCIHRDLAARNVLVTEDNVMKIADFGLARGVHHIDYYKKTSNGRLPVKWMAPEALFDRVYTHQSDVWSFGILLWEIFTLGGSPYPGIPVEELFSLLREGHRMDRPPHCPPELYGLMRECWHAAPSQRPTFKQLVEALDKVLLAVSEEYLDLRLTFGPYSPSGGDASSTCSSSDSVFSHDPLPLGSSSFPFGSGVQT
Protocol: as §1, §2, §3, §4

FGFR2 = FGFR2 (Homo sapiens, UniProt P21802); assay: Kinase activity inhibition assay (HTRF), FGFR2; type: biochemical; conditions: ATP 20 µM
Protocol: as §1, §2, §3, §4

DYRK2 = DYRK2 (Homo sapiens, UniProt Q92630); assay: Kinase activity inhibition assay (ADP-Glo), DYRK2; type: biochemical; conditions: ATP 5 µM
Protocol: as §1
(§5) Table 1.1-1 ADP-Glo Buffer
(§6) Table 1.2-1 ADP-Glo Kinase and Substrate Formulation
as §4

KDR = KDR (Homo sapiens, UniProt P35968); assay: Kinase activity inhibition assay (HTRF), KDR; type: biochemical; conditions: ATP 4 µM
Protocol: as §1, §2, §4

TYRO3 = TYRO3 (Homo sapiens, UniProt Q06418); assay: Kinase activity inhibition assay (HTRF), TYRO3; type: biochemical; conditions: ATP 0.5 µM
Protocol: as §1, §2, §4

FLT1 = FLT1 (Homo sapiens, UniProt P17948); assay: Kinase activity inhibition assay (ADP-Glo), FLT1; type: biochemical; conditions: ATP 50 µM
Sequence of FLT1 (P17948 27-1338): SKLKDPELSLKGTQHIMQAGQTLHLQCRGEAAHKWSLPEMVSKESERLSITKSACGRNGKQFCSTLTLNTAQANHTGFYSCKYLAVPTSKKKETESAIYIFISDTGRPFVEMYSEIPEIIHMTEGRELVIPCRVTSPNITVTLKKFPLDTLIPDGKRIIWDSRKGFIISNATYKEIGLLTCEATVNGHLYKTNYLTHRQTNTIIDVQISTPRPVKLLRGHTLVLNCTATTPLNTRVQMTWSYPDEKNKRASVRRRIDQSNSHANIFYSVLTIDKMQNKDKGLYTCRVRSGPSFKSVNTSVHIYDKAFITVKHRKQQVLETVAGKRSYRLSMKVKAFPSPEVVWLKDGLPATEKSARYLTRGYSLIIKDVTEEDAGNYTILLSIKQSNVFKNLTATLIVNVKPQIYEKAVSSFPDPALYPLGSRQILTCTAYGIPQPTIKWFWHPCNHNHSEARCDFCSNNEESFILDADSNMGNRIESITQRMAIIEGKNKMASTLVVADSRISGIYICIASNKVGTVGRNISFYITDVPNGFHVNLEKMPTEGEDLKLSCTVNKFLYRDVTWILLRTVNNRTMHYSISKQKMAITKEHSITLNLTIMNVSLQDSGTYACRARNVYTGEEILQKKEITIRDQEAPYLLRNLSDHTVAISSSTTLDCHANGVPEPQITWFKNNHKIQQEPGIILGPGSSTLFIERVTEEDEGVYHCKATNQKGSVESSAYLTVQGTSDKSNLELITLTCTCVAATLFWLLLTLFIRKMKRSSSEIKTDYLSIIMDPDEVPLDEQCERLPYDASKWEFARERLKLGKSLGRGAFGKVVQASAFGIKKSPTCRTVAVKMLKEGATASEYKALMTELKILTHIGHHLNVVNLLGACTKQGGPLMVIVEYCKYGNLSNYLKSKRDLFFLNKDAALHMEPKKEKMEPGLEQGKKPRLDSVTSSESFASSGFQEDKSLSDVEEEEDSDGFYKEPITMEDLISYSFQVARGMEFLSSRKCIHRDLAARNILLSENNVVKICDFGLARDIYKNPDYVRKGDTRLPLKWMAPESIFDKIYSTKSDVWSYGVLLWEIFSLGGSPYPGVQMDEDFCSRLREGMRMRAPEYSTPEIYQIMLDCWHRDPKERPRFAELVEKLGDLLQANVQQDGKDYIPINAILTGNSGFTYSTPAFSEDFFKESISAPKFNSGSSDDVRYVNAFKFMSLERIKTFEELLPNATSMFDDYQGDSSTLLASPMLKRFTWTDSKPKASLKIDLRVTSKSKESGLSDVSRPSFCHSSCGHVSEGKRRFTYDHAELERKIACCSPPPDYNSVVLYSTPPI
Protocol: as §1, §5, §6, §3, §4

FGFR2 V564F = FGFR2 V564F (Homo sapiens, UniProt P21802, V564F); assay: Kinase activity inhibition assay (HTRF), FGFR2 V564F; type: biochemical; conditions: ATP 15 µM
Protocol: as §1, §2, §3, §4

[1] = Oral pharmacokinetic study in rats; conditions: rat, in vivo, male SD rats, oral gavage, 1% MC; for AUC(0-t) at 8 h: read-out: AUC0-8
Protocol: Drug preparation: 1% MC was added to the compound, ground, and shaken uniformly. Samples were collected at 5 min, 15 min, 30 min, 1 h, 2 h, 4 h, and 8 h post-dose, followed by analysis using liquid chromatography-tandem mass spectrometry (LC-MS/MS). Table 3 PK Data of Selected Compounds

FGFR2 V564I = FGFR2 V564I (Homo sapiens, UniProt P21802, V564I); assay: Kinase activity inhibition assay (HTRF), FGFR2 V564I; type: biochemical; conditions: ATP 20 µM
Protocol: as §1, §2, §3, §4

FGFR1 = FGFR1 (Homo sapiens, UniProt P11362); assay: Kinase activity inhibition assay (HTRF), FGFR1; type: biochemical; conditions: ATP 40 µM
Protocol: as §1, §2, §3, §4

FGFR2 N549H = FGFR2 N549H (Homo sapiens, UniProt P21802, N549H); assay: Kinase activity inhibition assay (HTRF), FGFR2 N549H; type: biochemical; conditions: ATP 9 µM
Protocol: as §1, §2, §4

FLT3 = FLT3 (Homo sapiens, UniProt P36888); assay: Kinase activity inhibition assay (HTRF), FLT3; type: biochemical; conditions: ATP 2 µM
Protocol: as §1, §2, §3, §4

FGFR4 V550L = FGFR4 V550L (Homo sapiens, UniProt P22455, V550L); assay: Kinase activity inhibition assay (ADP-Glo), FGFR4 V550L; type: biochemical; conditions: ATP 20 µM
Sequence of FGFR4 V550L (P22455 22-802 V550L): as the sequence (P22455 22-802) above, with V529L counted along it
Protocol: as §1, §5, §6, §4

FGFR3 = FGFR3 (Homo sapiens, UniProt P22607); assay: Kinase activity inhibition assay (HTRF), FGFR3; type: biochemical; conditions: ATP 50 µM
Protocol: as §1, §2, §3, §4

FGFR3 K650M = FGFR3 K650M (Homo sapiens, UniProt P22607, K650M); assay: Kinase activity inhibition assay (HTRF), FGFR3 K650M; type: biochemical; conditions: ATP 12 µM
Protocol: as §1, §2, §4

RET V804L = RET V804L (Homo sapiens, UniProt P07949, V804L); assay: Kinase activity inhibition assay (HTRF), RET V804L; type: biochemical; conditions: ATP 5 µM
Protocol: as §1, §2, §3, §4

FGFR3 V555M = FGFR3 V555M (Homo sapiens, UniProt P22607, V555M); assay: Kinase activity inhibition assay (HTRF), FGFR3 V555M; type: biochemical; conditions: ATP 20 µM
Protocol: as §1, §2, §3, §4

FLT4 = FLT4 (Homo sapiens, UniProt P35916); assay: Kinase activity inhibition assay (HTRF), FLT4; type: biochemical; conditions: ATP 32 µM
Protocol: as §1, §2, §3, §4

FGFR3 V555L = FGFR3 V555L (Homo sapiens, UniProt P22607, V555L); assay: Kinase activity inhibition assay (HTRF), FGFR3 V555L; type: biochemical; conditions: ATP 20 µM
Protocol: as §1, §2, §3, §4

FGFR4 V550M = FGFR4 V550M (Homo sapiens, UniProt P22455, V550M); assay: Kinase activity inhibition assay (HTRF), FGFR4 V550M; type: biochemical; conditions: ATP 60 µM
Sequence of FGFR4 V550M (P22455 22-802 V550M): as the sequence (P22455 22-802) above, with V529M counted along it
Protocol: as §1, §2, §4

FGFR1 V561M = FGFR1 V561M (Homo sapiens, UniProt P11362, V561M); assay: Kinase activity inhibition assay (HTRF), FGFR1 V561M; type: biochemical; conditions: ATP 20 µM
Protocol: as §1, §2, §3, §4

LRRK2 G2019S = LRRK2 G2019S (Homo sapiens, UniProt Q5S007, G2019S); assay: Kinase activity inhibition assay (ADP-Glo), LRRK2 G2019S; type: biochemical; conditions: for inhibition at 0.1 µM: read-out: LRRK2 G2019S inhibition rate at 100 nM, ATP 100 µM, compound at 100 nM
Sequence of LRRK2 G2019S (Q5S007 whole entry G2019S): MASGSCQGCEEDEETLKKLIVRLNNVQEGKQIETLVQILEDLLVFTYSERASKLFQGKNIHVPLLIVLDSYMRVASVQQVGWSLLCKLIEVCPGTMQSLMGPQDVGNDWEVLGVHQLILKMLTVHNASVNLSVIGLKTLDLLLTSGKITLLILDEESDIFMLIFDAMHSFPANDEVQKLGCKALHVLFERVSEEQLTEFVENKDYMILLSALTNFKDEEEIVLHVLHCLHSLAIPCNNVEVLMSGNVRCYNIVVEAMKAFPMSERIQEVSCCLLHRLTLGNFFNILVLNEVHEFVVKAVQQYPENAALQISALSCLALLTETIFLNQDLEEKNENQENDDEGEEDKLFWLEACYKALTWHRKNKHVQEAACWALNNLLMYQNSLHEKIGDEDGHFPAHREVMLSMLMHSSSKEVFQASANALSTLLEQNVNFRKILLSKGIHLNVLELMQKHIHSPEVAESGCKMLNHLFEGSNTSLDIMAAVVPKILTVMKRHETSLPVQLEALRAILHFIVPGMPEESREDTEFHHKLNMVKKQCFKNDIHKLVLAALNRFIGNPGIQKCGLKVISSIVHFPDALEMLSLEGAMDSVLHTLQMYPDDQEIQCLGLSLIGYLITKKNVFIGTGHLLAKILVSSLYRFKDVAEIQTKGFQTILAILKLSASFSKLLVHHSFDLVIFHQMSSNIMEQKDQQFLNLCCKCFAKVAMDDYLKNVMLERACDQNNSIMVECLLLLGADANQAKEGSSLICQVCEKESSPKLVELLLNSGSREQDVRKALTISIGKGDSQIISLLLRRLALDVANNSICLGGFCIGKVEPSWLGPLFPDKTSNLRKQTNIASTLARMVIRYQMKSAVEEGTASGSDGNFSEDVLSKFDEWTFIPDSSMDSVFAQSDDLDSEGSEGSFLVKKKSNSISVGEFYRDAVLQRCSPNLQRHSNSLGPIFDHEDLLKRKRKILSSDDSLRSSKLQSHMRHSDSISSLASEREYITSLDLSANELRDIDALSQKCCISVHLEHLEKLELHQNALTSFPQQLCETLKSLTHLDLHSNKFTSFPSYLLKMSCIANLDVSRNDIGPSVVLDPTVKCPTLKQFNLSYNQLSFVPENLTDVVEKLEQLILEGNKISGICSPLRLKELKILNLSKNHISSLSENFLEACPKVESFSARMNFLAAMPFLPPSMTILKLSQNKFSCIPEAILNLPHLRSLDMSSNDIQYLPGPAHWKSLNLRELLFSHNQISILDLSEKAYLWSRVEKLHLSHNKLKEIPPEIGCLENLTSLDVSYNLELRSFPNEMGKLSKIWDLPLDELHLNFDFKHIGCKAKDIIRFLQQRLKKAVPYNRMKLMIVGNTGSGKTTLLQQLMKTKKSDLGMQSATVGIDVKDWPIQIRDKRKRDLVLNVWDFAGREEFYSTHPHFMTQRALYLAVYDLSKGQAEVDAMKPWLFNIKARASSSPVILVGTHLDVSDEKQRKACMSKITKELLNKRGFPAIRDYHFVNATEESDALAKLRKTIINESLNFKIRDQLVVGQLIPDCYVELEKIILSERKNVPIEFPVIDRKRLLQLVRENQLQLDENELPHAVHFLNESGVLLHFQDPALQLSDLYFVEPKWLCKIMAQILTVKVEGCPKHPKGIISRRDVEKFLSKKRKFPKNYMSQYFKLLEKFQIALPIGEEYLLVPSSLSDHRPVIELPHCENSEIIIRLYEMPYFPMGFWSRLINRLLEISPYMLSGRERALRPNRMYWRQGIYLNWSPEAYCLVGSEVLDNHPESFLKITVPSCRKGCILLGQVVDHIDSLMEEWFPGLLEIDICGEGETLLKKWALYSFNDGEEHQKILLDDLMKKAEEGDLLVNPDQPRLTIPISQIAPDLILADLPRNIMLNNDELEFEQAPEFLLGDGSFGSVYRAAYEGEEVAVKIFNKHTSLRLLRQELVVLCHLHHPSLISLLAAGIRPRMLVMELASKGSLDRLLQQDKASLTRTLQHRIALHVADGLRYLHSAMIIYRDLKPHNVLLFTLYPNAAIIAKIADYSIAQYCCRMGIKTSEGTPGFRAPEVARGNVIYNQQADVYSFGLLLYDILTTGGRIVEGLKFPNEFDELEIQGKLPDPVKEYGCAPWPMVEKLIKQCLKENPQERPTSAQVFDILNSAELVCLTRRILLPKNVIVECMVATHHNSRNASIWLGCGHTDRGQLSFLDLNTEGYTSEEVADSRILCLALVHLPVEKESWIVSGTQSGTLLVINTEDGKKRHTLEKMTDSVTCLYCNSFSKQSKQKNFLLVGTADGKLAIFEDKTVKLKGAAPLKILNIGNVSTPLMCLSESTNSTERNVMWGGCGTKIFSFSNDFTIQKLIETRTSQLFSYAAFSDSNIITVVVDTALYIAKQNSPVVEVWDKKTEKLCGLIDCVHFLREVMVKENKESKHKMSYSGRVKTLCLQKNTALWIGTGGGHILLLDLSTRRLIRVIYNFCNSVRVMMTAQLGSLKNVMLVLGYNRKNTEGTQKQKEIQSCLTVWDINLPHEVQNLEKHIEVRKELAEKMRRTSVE
Protocol: as §1, §5, §6, §4

LRRK2 wt = LRRK2 wt (Homo sapiens, UniProt Q5S007); assay: Kinase activity inhibition assay (ADP-Glo), LRRK2 wt; type: biochemical; conditions: for inhibition at 0.3 µM: read-out: LRRK2 wt inhibition rate @300 nM, ATP 20 µM, compound at 300 nM; for inhibition at 0.1 µM: read-out: LRRK2 wt inhibition rate at 100 nM, ATP 20 µM, compound at 100 nM
Sequence of LRRK2 wt (Q5S007 whole entry): as the sequence (Q5S007 whole entry G2019S) above, with S2019G counted along it
Protocol: as §1, §5, §6, §4

PDGFRα = PDGFRα (Homo sapiens, UniProt P16234); assay: Kinase activity inhibition assay (HTRF), PDGFRα; type: biochemical; conditions: ATP 0.5 µM
Protocol: as §1, §2, §3, §4

Sequence of FGFR4 N535K (P22455 22-802 N535K): as the sequence (P22455 22-802) above, with N514K counted along it

C=CC(=O)N[C@H]1CCOC[C@H]1Nc1ncc2cc(-c3c(Cl)c(OC)cc(OC)c3Cl)ccc2n1 [BLU554]
IC50 (FGFR4 N535K): 42.5 nM
IC50 (FGFR4): 2.98 nM

Cc1nn2cc1Nc1ncc(C(F)(F)F)c(n1)NCCCNC(=O)C2(C)C [Example T-1, (E)-3^3,4,4-Trimethyl-15-(trifluoromethyl)-3^1H-2,6,10-triaza-1(2,4)-pyrimidina-3(4,1)-pyrazolacyclodecan-5-one]
IC50 (FGFR2): 21.8 nM
IC50 (DYRK2): 248 nM
IC50 (KDR): 18.9 nM
IC50 (FGFR4 N535K): 609 nM
IC50 (TYRO3): 278 nM
IC50 (FGFR4): 32.9 nM
IC50 (FLT1): 15.2 nM
IC50 (FGFR2 V564F): 8.22 nM
Cmax ([1]; 3 mg/kg, dose 3mpk): 754 ng/mL
Tmax ([1]; 3 mg/kg, dose 3mpk): 1 h
half-life ([1]; 3 mg/kg, dose 3mpk): 2.3 h
AUC(0-t) at 8 h ([1]; 3 mg/kg, dose 3mpk): 3820 ng·h/mL
IC50 (FGFR2 V564I): 76.1 nM
IC50 (FGFR1): 135 nM
IC50 (FGFR2 N549H): 16.4 nM
IC50 (FLT3): 370 nM
IC50 (FGFR4 V550L): 67.4 nM
IC50 (FGFR3): 50.2 nM
IC50 (FGFR3 K650M): 9.1 nM
IC50 (RET V804L): 175 nM
IC50 (FGFR3 V555M): 12.7 nM
IC50 (FLT4): 65.1 nM
IC50 (FGFR3 V555L): 5.09 nM
IC50 (FGFR4 V550M): 126 nM
IC50 (FGFR1 V561M): 26.7 nM

Cc1nn2cc1Nc1ncc3c(Cl)cn(c3n1)CCCN(C)C(=O)C2(C)C [Example T-7, (E)-1^5-Chloro-3^3,4,4,6-tetramethyl-1^7H,3^1H-2,6-diaza-1(2,7)-pyrrolo[2,3-d]pyrimidine-3(4,1)-pyrazolacyclononan-5-one]
inhibition at 0.1 µM (LRRK2 G2019S): 4.3%
inhibition at 0.3 µM (LRRK2 wt): 7%

Cc1nn2cc1Nc1ncc3c(Cl)nn(c3n1)CCCNC(=O)C2(C)C [Example T-8, (E)-1^3-Chloro-3^3,4,4-trimethyl-1^1H,3^1H-2,6-diaza-1(6,1)pyrazolo[3,4-d]pyrimidine-3(4,1)-pyrazolacyclononan-5-one]
inhibition at 0.1 µM (LRRK2 G2019S): 52%
inhibition at 0.1 µM (LRRK2 wt): 64%

Cc1nn2cc1Nc1ncc(C(F)(F)F)c(n1)NCCNC(=O)C2(C)C [Example T-12, (E)-3^3,4,4-Trimethyl-1^5-(trifluoromethyl)-3^1H-2,6,9-triaza-1(2,4)-pyrimidina-3(4,1)-pyrazolacyclononan-5-one]
inhibition at 0.3 µM (LRRK2 G2019S; read-out: LRRK2 G2019S inhibition rate @300 nM, ATP 100 µM, compound at 300 nM): 0.34%
inhibition at 0.1 µM (LRRK2 wt): 5.7%

Cc1nn2cc1Nc1ncc(C(F)(F)F)c(n1)NCCCCNC(=O)C2(C)C [Example T-13, (E)-3^3,4,4-Trimethyl-1^5-(trifluoromethyl)-3^1H-2,6,11-triaza-1(2,4)-pyrimidina-3(4,1)-pyrazolacycloundecan-5-one]
inhibition at 0.1 µM (LRRK2 G2019S): 92%
inhibition at 0.1 µM (LRRK2 wt): 96%

Cc1nn2cc1Nc1ncc(C(F)(F)F)c(n1)NCCCNC(=O)C2 [Example T-14, (E)-3^3-Methyl-1^5-(trifluoromethyl)-3^1H-2,6,10-triaza-1(2,4)-pyrimidina-3(4,1)-pyrazolacyclodecan-5-one]
inhibition at 0.1 µM (LRRK2 G2019S): 84%
inhibition at 0.1 µM (LRRK2 wt): 87%

Cc1nn2cc1Nc1ncc(C(F)(F)F)c(n1)NCCNC(=O)C2 [Example T-15, (E)-3^3-Methyl-1^5-(trifluoromethyl)-3^1H-2,6,9-triaza-1(2,4)-pyrimidina-3(4,1)-pyrazolacyclononan-5-one]
inhibition at 0.1 µM (LRRK2 G2019S): -9.6%
inhibition at 0.3 µM (LRRK2 wt): 5%

Cc1nn2cc1Nc1ncc3c(Cl)cc(n3n1)CCCNC(=O)C2(C)C [Example T-25, (1^1Z,3^4E)-1^5-Chloro-3^3,4,4-trimethyl-3^1H-2,6-diaza-1(2,7)-pyrrolo[2,1-f][1,2,4]triazine-3(4,1)-pyrazolacyclononan-5-one]
IC50 (FGFR2): 31.9 nM
IC50 (DYRK2): 27.7 nM
IC50 (KDR): 7.67 nM
IC50 (FGFR4 N535K): 621 nM
IC50 (TYRO3): 56.1 nM
IC50 (FGFR4): 58.3 nM
IC50 (FLT1): 8.83 nM
IC50 (FGFR2 V564F): 1.73 nM
Cmax ([1]; 5 mg/kg, dose 5mpk): 630 ng/mL
Tmax ([1]; 5 mg/kg, dose 5mpk): 1 h
half-life ([1]; 5 mg/kg, dose 5mpk): 1.73 h
AUC(0-t) at 8 h ([1]; 5 mg/kg, dose 5mpk): 2210 ng·h/mL
IC50 (FGFR2 V564I): 60.2 nM
IC50 (PDGFRα): 67 nM
IC50 (FGFR1): 180 nM
IC50 (FGFR2 N549H): 17.4 nM
IC50 (FLT3): 88.1 nM
IC50 (FGFR4 V550L): 208 nM
IC50 (FGFR3): 67.5 nM
IC50 (FGFR3 K650M): 14.1 nM
IC50 (RET V804L): 43.9 nM
IC50 (FGFR3 V555M): 5.07 nM
IC50 (FLT4): 19.2 nM
IC50 (FGFR3 V555L): 8.81 nM
IC50 (FGFR4 V550M): 105 nM
IC50 (FGFR1 V561M): 13.8 nM
